pKi: −log10 of the molar value. Where two headings read alike, the source gives them in different places.
Key:
[1] = system: human airway smooth muscle cells; details: 10 μM; bradykinin 1 μM; cited from earlier work
MAM rats = details: cited from earlier work
α2β3γ2 GABAA receptor = details: baseline 100, cited from earlier work
[2] = system: human airway smooth muscle cells; details: whole cell patch clamp; cited from earlier work
α4β2γ2 GABAA receptor = target: T1, α4β2γ2 GABAA receptor (Homo sapiens, UniProt P18507+P48169); experiment: Radioligand binding (McKernan and Atack), α4β2γ2; details: Table 3; αxβ2γ2; means of two determinations; read-out: Binding affinity α4
T1 construct: expressed in transfected cells; host or cells: HEK cells
Procedure: (§1) Transfected HEK cells (beta2 gamma2 and desired alpha subtype) were harvested into phosphate-buffered saline, centrifuged at 3,000 g, and stored at −70°C until required. On the day of the assay, pellets were thawed and resuspended in sufficient volume of 50 mM Tris/acetate (pH 7.4 at 4°C) to give a total binding of approximately 1500–2000 dpm. […] Total assay volume was 0.5 mL and assays were carried out in 96-well plates and incubation time started by the addition of 0.1 mL of resuspended cell membranes. Following incubation for 1 hour at 4°C, assays were terminated by filtration through GF/B filters, washed with 10 mL ice cold buffer, dried, and then counted using a liquid scintillation counter. […] We have previously reported the synthesis of the following.

ventral HPC neurons = details: 0.1 mg/kg, i.v.; MAM- and saline-treated animals; cited from earlier work
α3β3γ2 GABAA receptor = details: baseline 100, cited from earlier work
[3] = system: guinea pig airway smooth muscle; details: 1 μM substance P; p < 0.01; cited from earlier work
α1β3γ2 GABAA receptor = details: baseline 100, cited from earlier work
rodents = details: one study in rodents; cited from earlier work
[4] = system: human airway smooth muscle; details: 50 μM; p < 0.01; cited from earlier work
[5] = system: dopamine neurons in the VTA; details: cited from earlier work
α6β2γ2 GABAA receptor = target: T2, α6β2γ2 GABAA receptor (Homo sapiens, UniProt P18507+Q16445); experiment: Radioligand binding (McKernan and Atack), α6β2γ2; details: Table 3; αxβ2γ2; means of two determinations; read-out: Binding affinity α6
T2 construct: expressed in transfected cells; host or cells: HEK cells
Procedure: as §1

primates = details: cited from earlier work
α5β3γ2 GABAA receptor = target: T3, α5β3γ2 GABAA receptor (Homo sapiens, UniProt P18507+P31644); details: baseline 100, cited from earlier work
T3 construct: expressed in transfected cells; host or cells: Xenopus oocytes
T3 sequence (P28472 26-473): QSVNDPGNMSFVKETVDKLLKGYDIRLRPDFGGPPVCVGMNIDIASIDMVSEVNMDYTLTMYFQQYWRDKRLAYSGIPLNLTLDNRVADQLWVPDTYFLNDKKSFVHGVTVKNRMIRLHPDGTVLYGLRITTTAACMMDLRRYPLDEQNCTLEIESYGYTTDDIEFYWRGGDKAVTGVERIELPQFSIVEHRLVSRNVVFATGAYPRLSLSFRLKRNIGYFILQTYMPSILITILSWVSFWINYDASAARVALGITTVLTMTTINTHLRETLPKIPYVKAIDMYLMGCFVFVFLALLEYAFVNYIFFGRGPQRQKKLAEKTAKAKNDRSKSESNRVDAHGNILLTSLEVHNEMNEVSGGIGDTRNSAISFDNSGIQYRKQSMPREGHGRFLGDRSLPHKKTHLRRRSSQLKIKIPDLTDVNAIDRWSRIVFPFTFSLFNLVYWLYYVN
T3 sequence (P31644 32-462): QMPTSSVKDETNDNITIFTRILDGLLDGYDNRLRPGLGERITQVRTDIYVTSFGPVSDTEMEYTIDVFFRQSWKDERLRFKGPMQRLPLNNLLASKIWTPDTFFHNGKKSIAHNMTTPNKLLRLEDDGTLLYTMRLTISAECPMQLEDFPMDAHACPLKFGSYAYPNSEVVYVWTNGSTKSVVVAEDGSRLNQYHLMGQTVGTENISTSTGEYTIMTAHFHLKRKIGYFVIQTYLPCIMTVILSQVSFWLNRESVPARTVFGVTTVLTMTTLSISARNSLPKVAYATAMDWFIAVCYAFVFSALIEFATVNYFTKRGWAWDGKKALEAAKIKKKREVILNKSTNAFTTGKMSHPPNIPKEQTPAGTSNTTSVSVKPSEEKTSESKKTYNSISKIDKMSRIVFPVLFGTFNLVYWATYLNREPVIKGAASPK
T3 sequence (P18507 40-475): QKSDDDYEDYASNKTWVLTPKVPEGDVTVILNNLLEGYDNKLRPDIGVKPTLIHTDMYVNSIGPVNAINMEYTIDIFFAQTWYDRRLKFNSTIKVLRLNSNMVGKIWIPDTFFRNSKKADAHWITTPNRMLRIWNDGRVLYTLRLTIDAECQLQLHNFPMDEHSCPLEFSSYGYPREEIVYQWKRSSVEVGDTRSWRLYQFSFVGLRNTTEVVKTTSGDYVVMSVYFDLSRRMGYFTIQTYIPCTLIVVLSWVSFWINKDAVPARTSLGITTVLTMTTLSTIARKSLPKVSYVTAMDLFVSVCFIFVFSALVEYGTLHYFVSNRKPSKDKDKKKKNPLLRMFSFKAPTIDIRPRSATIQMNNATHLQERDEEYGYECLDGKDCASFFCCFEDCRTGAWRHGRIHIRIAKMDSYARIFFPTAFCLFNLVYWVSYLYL

T1 sequence (P48169 36-554): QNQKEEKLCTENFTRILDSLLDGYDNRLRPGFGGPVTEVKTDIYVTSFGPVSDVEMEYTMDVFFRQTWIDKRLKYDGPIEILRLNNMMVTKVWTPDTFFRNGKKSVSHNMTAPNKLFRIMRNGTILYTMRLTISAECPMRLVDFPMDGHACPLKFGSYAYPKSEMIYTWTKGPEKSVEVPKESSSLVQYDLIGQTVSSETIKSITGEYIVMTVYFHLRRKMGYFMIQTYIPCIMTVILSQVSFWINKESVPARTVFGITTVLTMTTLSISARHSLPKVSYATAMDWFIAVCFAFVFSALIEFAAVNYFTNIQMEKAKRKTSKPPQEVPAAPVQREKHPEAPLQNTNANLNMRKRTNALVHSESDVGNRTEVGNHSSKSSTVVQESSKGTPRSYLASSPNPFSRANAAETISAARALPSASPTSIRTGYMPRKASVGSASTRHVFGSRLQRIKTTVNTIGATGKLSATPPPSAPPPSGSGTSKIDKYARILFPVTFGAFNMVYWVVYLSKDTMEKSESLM
T1 sequence (P18507 40-475): as the sequence (P18507 40-475) above
T1 sequence (P47870 26-512, further chain): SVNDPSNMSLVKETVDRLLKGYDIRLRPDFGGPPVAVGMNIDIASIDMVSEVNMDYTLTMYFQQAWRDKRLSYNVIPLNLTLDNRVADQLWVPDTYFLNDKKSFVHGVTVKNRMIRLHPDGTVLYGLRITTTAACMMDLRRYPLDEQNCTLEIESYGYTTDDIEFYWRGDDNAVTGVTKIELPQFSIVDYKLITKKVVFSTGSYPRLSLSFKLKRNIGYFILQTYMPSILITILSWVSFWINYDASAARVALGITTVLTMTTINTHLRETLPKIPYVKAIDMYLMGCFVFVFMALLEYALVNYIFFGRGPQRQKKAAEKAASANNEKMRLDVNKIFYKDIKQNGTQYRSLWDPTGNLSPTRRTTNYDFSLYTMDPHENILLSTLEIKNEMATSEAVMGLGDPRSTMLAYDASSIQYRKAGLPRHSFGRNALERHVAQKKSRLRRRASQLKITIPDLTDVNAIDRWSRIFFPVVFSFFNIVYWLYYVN
T2 sequence (P18507 40-475): as the sequence (P18507 40-475) above
T2 sequence (Q16445 20-453): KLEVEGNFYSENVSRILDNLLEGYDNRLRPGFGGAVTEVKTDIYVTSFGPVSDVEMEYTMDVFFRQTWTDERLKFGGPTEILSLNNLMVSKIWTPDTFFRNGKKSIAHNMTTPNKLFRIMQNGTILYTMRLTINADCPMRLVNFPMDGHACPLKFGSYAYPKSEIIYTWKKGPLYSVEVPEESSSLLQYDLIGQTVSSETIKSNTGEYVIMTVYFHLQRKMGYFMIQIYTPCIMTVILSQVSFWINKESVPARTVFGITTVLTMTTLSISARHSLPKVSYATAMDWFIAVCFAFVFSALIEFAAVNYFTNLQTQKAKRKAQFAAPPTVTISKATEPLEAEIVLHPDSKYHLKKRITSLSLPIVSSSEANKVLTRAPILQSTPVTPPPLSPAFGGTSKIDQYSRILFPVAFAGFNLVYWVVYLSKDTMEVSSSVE
T2 sequence (P47870 26-512, further chain): as the sequence (P47870 26-512, further chain) above

C#Cc1ccc2c(c1)C(c1ccccc1F)=N[C@H](C)c1c(C(=O)OCC)ncn1-2 [SH-053-2′F-R-CH3, (2)]
bradykinin-induced increase in intracellular calcium [1]: attenuated | locomotor response to D-amphetamine (0.5 mg/kg i.p.), MAM rats (MAM rats; 10 mg/kg, i.p.): reduced | locomotor response to D-amphetamine in repeatedly haloperidol-treated SAL animals (MAM rats; rat, in vivo): reduced | peak locomotor response in repeatedly haloperidol-treated MAM rats (MAM rats; rat, in vivo): no effect | Efficacy α2 as % of control current (α2β3γ2 GABAA receptor; 100 nM): 124 % of control current | Efficacy α2 as % of control current (α2β3γ2 GABAA receptor; 1 μM): 185 % of control current | plasma membrane chloride current [2]: induced a Cl^− current | pKi (α4β2γ2 GABAA receptor): < 5.30 | evoked excitatory response of ventral HPC neurons (ventral HPC neurons): decreases | Efficacy α3 as % of control current (α3β3γ2 GABAA receptor; 100 nM): 125 % of control current | Efficacy α3 as % of control current (α3β3γ2 GABAA receptor; 1 μM): 220 % of control current | remaining contractile force 30 minutes after a substance P-induced contraction [3]: significantly reduced | Efficacy α1 as % of control current (α1β3γ2 GABAA receptor; 100 nM): 111 % of control current | Efficacy α1 as % of control current (α1β3γ2 GABAA receptor; 1 μM): 154 % of control current | locomotion (rodents): decrease in locomotion | isoproterenol (10 nM) mediated relaxation of an acetylcholine EC50 contraction [4]: significantly enhances | dopamine neuron activity in control animals ([5]; 0.1 mg/kg, i.v.): no effect | firing rate and burst activity in MAM animals ([5]; 0.1 mg/kg, i.v.): no effect | number of spontaneously firing dopamine neurons (cells/track), MAM animals ([5]; 0.1 mg/kg, i.v.): normalizes the aberrant increase | dopamine activity and locomotor response in MAM rats withdrawn from HAL [5]: unresponsive | number of spontaneously firing dopamine neurons (cells/track), MAM animals ([5]; hippocampal infusion 1 μM/side): normalizes the aberrant increase | percentage of spikes occurring in bursts, MAM and control animals ([5]; hippocampal infusion 1 μM/side): significantly reduced | cells/track in repeatedly haloperidol-treated SAL rats ([5]; rat, in vivo): reversed the haloperidol-induced reduction | firing rate of dopamine neurons in repeatedly haloperidol-treated SAL rats ([5]; rat, in vivo): increase | percentage of spikes occurring in bursts, haloperidol-treated SAL and MAM rats ([5]; rat, in vivo): no impact | pKi (α6β2γ2 GABAA receptor): < 5.30 | anxiolytic effect (primates): very weak anxiolytic effect | Efficacy α5 as % of control current (α5β3γ2 GABAA receptor; 100 nM): 183 % of control current | Efficacy α5 as % of control current (α5β3γ2 GABAA receptor; 1 μM): 387 % of control current

Reference: PMC4657098, “A Review of the Updated Pharmacophore for the Alpha 5 GABA(A) Benzodiazepine Receptor Model” (International Journal of Medicinal Chemistry, 2015)
